Assay results as given in PubChem BioAssay (NCI).
“And” between values parts separate entries of the source, which are not always exact repeats. Identical values can stand only once.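 All cell lines were grown in 96-well plates and treated with compound for 48 hours. Here, GI50 denotes the concentration required for 50% inhibition of growth. TGI is the concentration that stops growth completely.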

Tests used:
Test in all cases: DTP human tumour cell line panel, 48 h
SK-OV-3 ovarian = test system: SK-OV-3 ovarian
SF-295 CNS = test system: SF-295 CNS
NCI-H226 lung = test system: NCI-H226 lung
MOLT-4 leukemia = test system: MOLT-4 leukemia
M14 melanoma = test system: M14 melanoma
HCC-2998 colon = test system: HCC-2998 colon
OVCAR-4 ovarian = test system: OVCAR-4 ovarian
786-0 renal = test system: 786-0 renal
IGROV1 ovarian = test system: IGROV1 ovarian
NCI-H23 lung = test system: NCI-H23 lung

Compound	GI50 (SK-OV-3 ovarian)	TGI (SK-OV-3 ovarian)	GI50 (SF-295 CNS)	TGI (SF-295 CNS)	GI50 (NCI-H226 lung) [µM]	TGI (NCI-H226 lung)	GI50 (MOLT-4 leukemia)	TGI (MOLT-4 leukemia)	GI50 (M14 melanoma) [µM]	TGI (M14 melanoma)	GI50 (HCC-2998 colon) [µM]	TGI (HCC-2998 colon)	GI50 (OVCAR-4 ovarian) [µM]	TGI (OVCAR-4 ovarian)	GI50 (786-0 renal)	TGI (786-0 renal)	GI50 (IGROV1 ovarian) [µM]	TGI (IGROV1 ovarian)	TGI (NCI-H23 lung)	GI50 (NCI-H23 lung) [µM]
CC(C)=Cc1cc(C)c2ccc(C)c3c2c1C(C)=C(O)C3=O	27.4 µM	81.2 µM	31.4 µM	94.9 µM	30.8	81 µM	1.19 µM	6.05 µM	20.1	45.7 µM	18	37.4 µM	> 100	> 100 µM	35.9 µM	> 100 µM	21	71.6 µM		
CC(/C=C/C(=O)c1sc(C(N)=S)nc1C)=C\c1ccccc1		> 100 µM		> 100 µM		> 100 µM		> 100 µM		> 100 µM		> 100 µM		> 100 µM		> 100 µM		> 100 µM	> 100 µM	
O=C1C(Cl)=C(Cl)C(=O)N1c1ccc(Cl)c(Cl)c1Cl		> 100 µM		> 100 µM		> 100 µM		> 100 µM		> 100 µM		> 100 µM		> 100 µM		> 100 µM		> 100 µM	> 100 µM	
O=C1NC(=O)C(=Cc2cn(Cc3ccccc3)c3ccccc23)C(=O)N1	6.3 µM	29 µM	1.39 µM	34.5 µM	0.951	3.29 µM	12.9 µM	32.9 µM	17.9	44.4 µM	10.9	29.5 µM	4.84	21 µM	17.1 µM	33 µM	0.489	10.5 µM	34.2 µM	14.1
COC(=O)/C(C#N)=C1\CCC(OC)N1C (stereo not given)		> 100 µM		> 100 µM		> 100 µM		> 100 µM		> 100 µM		> 100 µM		> 100 µM		> 100 µM		> 100 µM	> 100 µM	
Cc1ccc(SSCC(O)C(O)CSSc2ccc(C)cc2)cc1 (stereo not given)	10.8 µM and 22.8 µM	23.7 µM and 43.6 µM	4.31 µM and 12.6 µM	16.4 µM and 26.1 µM		30.4 µM and 29 µM	1.43 µM and 3.12 µM	5.96 µM and 20.9 µM		18.9 µM and 21.6 µM		28.3 µM and 28.9 µM		26.8 µM and 28.5 µM	5.15 µM and 12.4 µM	17.5 µM and 24.9 µM		5.87 µM and 6.81 µM	20.9 µM and 24.1 µM	
COC(=O)c1onc(C2OC(C)(C)OC2C(O)COC(c2ccccc2)(c2ccccc2)c2ccccc2)c1C(=O)OC (stereo not given)						> 100 µM		> 100 µM		> 100 µM		> 100 µM		> 100 µM		> 100 µM			> 100 µM	
CC(C)=Cc1cc(CCC/C(C)=C/Cc2c(O)cc(C)c(C(=O)O)c2O)co1				> 100 µM						> 100 µM		> 100 µM		> 100 µM		> 100 µM		> 100 µM	> 100 µM	
CCc1ccc2oc(=O)ccc2c1				> 100 µM		> 100 µM		> 100 µM		> 100 µM		> 100 µM		> 100 µM		> 100 µM		> 100 µM	> 100 µM	
CCC[CH2][Sn]([CH2]CCC)([CH2]CCC)/[C](=C/[Si](C)(C)c1ccccc1)c1ccc2c(c1)OCO2	18.5 µM	41 µM	26.8 µM	49.6 µM	19.9	42.9 µM	17.4 µM	83.3 µM	16.8	35.2 µM			14.9	36.6 µM	16 µM	30.9 µM	16.9	37.9 µM	92.9 µM	25.6
Cc1ccc(N2C(=O)/C(=C/c3ccc(N(CCC#N)CCC#N)cc3)N=C2COc2ccc(Cl)cc2Cl)cc1		> 100 µM		> 100 µM		> 100 µM		> 100 µM		> 100 µM				> 100 µM		> 100 µM		> 100 µM	> 100 µM	
O=c1c2ccccc2oc2ccccc12 (tested in a mixture with another compound)		62.5 µM		53.3 µM						> 100 µM		89.9 µM		> 100 µM		> 100 µM		22.1 µM		
C1CSC[C@H]2COC[C@@H](CSCCS1)S2				> 100 µM				> 100 µM		> 100 µM		> 100 µM		> 100 µM		> 100 µM			> 100 µM	
CC1CCCC(C#N)(NOC2=NCCN2)C1 (stereo not given)			31 µM	> 100 µM	17.2	37 µM	10.7 µM	> 100 µM	84.1	> 100 µM			48.3	> 100 µM	> 100 µM	> 100 µM	30.4	> 100 µM	> 100 µM	35.3
CC(C)[P+](c1ccccc1)(c1ccccc1)c1ccccc1	22.4 µM	> 100 µM	7.41 µM	36.6 µM	5.69	> 100 µM	6.9 µM	> 100 µM	11.2	> 100 µM	3.36	> 100 µM	3.7	94.6 µM	32.5 µM	> 100 µM	14.3	> 100 µM		
CCOC(=O)c1c(-c2ccccc2)[n+](=O)c2cc(F)c(F)cc2n1[O-]	2.03 µM	3.57 µM	2.08 µM	3.84 µM	2.73	6.92 µM	0.415 µM	> 100 µM	1.11	2.34 µM			0.624	2.16 µM	2.01 µM	3.64 µM	0.701	> 100 µM	3.13 µM	1.42
O=c1cc[nH]cc1-c1c[nH]ccc1=O		> 100 µM		> 100 µM		> 100 µM		> 100 µM		> 100 µM		> 100 µM				> 100 µM		> 100 µM	> 100 µM	
COc1cc(S(=O)(=O)Nc2nc(-c3ccc(N4C(=O)C(C)SC4c4ccccc4O)cc3)cs2)ccc1Cl (stereo not given)	50.6 µM	> 100 µM	31.8 µM	> 100 µM	20.3	> 100 µM	34.4 µM	> 100 µM	38.6	> 100 µM	50.3	> 100 µM	26.4	> 100 µM	64.9 µM	> 100 µM			> 100 µM	42.2

Compound	GI50 (SK-OV-3 ovarian)	TGI (SK-OV-3 ovarian)	GI50 (SF-295 CNS)	TGI (SF-295 CNS)	GI50 (NCI-H226 lung) [µM]	TGI (NCI-H226 lung)	GI50 (MOLT-4 leukemia)	TGI (MOLT-4 leukemia)	GI50 (M14 melanoma) [µM]	TGI (M14 melanoma)	GI50 (HCC-2998 colon) [µM]	TGI (HCC-2998 colon)	GI50 (OVCAR-4 ovarian) [µM]	TGI (OVCAR-4 ovarian)	GI50 (786-0 renal)	TGI (786-0 renal)	GI50 (IGROV1 ovarian) [µM]	TGI (IGROV1 ovarian)	TGI (NCI-H23 lung)	GI50 (NCI-H23 lung) [µM]
CC(C)C1(NC(=O)C2CC3c4cccc5[nH]cc(c45)CC3N(C)C2)OC2(O)C3CCCN3C(=O)C(Cc3ccccc3)N2C1=O (stereo not given)				> 100 µM				80.4 µM		> 100 µM		> 100 µM		> 100 µM		> 100 µM		> 100 µM	> 100 µM	
CCC1CCCCN1CC(C(C)=O)C(c1ccccc1)c1c(O)c2ccccc2oc1=O (stereo not given)		> 100 µM		> 100 µM		> 100 µM		> 100 µM		> 100 µM				> 100 µM		> 100 µM		> 100 µM	> 100 µM	
COc1ccc(Br)c(CN2CCc3ccccc32)c1OS(=O)(=O)c1ccc(C)cc1				> 100 µM		> 100 µM		> 100 µM		> 100 µM		> 100 µM				> 100 µM			85.1 µM	
O=S(=O)(/N=S(/Nc1ccccc1)C(F)(F)Cl)c1ccccc1 (stereo not given)		> 100 µM		> 100 µM		> 100 µM		> 100 µM		> 100 µM				> 100 µM		> 100 µM		> 100 µM	> 100 µM	
CC12OC(C(=O)C13CC3)C1C(=O)c3c(O)ccc(O)c3C(=O)C12 (stereo not given)	24.6 µM	78 µM					2.35 µM	10.2 µM	15.3	30.2 µM	11.9	27.4 µM			2.19 µM	6.56 µM	13.4	29.7 µM	31.1 µM	14.4
NC1=NC(SCc2ccccc2CCl)c2ncn(Cc3ccccc3CCl)c2N1 (stereo not given)	3.87 µM	13.9 µM	1.98 µM	5 µM	1.9	4.7 µM	2.04 µM	6.03 µM					2.83	10.2 µM	1.85 µM	3.97 µM	1.52	3.57 µM	3.45 µM	1.61
CCN(CC)CCCNCc1cc(-c2ccccc2)nc2cc(Cl)ccc12	11.7 µM	24.1 µM	1.8 µM	4.37 µM	11.8	27.3 µM	2.12 µM	5.46 µM	1.92	3.63 µM	1.94	3.89 µM	7.1	20.5 µM	2.41 µM	8.77 µM			27.3 µM	12.5
CN1CCC(c2c(O)cc(O)c3c(=O)cc(-c4ccccc4Cl)oc23)C(O)C1 (stereo not given)		> 73.4 µM				0.305 µM		0.198 µM		0.236 µM		0.454 µM		0.473 µM		> 100 µM	0.0827	> 100 µM	0.208 µM	
CC(C)(C)c1ccc(C2CC(=O)C3=C(C2)Nc2ccccc2N(C(=O)c2ccccc2Cl)C3c2ccc(F)cc2)cc1 (stereo not given)	> 100 µM	> 100 µM	> 100 µM	> 100 µM	> 100	> 100 µM			> 100	> 100 µM	> 100	> 100 µM	> 100	> 100 µM	> 100 µM	> 100 µM	> 100	> 100 µM	> 100 µM	> 100
COc1cc(OC)c2c(=O)cc(-c3ccccc3OCc3ccccc3)oc2c1OC	98 µM	> 100 µM	4.65 µM	26.8 µM	6.25	44 µM			7.22	23.1 µM	2.39	7.54 µM	6.32	> 100 µM	5.49 µM	56.4 µM			23.4 µM	5.94
COc1cc(Cc2c(C)cc(OC)c3[nH]c4ccccc4c23)cc2c1[nH]c1ccccc12	8.8 µM	> 25 µM			4.67	12.8 µM	5.69 µM	> 25 µM	5.12	11.8 µM	5.43	14.7 µM			5.38 µM	14.2 µM	9.03	> 25 µM		
COc1cc(C2c3cc4c(cc3OC(O)C2C)OCO4)cc(OC)c1OC (stereo not given)		23.3 µM		> 48.8 µM		7.33 µM		> 31.9 µM		30.2 µM		> 41.8 µM		> 79.4 µM		> 100 µM		51.1 µM		
N#C/C(=C/N1CCN(C(=O)c2ccco2)C1=S)C(=O)Nc1ccc(Cl)cc1	41.2 µM	> 50 µM	20.2 µM	> 50 µM			17.8 µM	> 50 µM	14.2	> 50 µM			25.2	> 50 µM	17.4 µM	> 50 µM	25.3	> 50 µM	33.5 µM	12.3
O=C(O)c1c2c(cc3c(=O)c4ccccc4[nH]c13)CCCC2		> 100 µM		> 100 µM		> 100 µM		> 100 µM				> 100 µM				> 100 µM		> 100 µM	> 100 µM	
CC(=O)OCC1OC(n2c(=O)[nH]c(=O)c3n[nH]nc32)C(OC(C)=O)C(OC(C)=O)C1OC(C)=O (stereo not given)		> 100 µM		> 100 µM				> 100 µM		> 100 µM		> 100 µM		> 100 µM		> 100 µM		> 100 µM	> 100 µM	
C=C(C(=O)OC)[C@@H]1CC2OC1C(=O)C(C)CCC/C(C)=C/CC[C@@]2(C)O (stereo not given in full)	> 100 µM	> 100 µM	39.5 µM	> 100 µM			17.2 µM	54.5 µM	15.8	29.2 µM			37.9	> 100 µM	15.2 µM	31.5 µM	11.3	25.4 µM	27.9 µM	14
Cc1cc(=O)[nH]c(NNC(C#N)c2ccccc2O)n1 (stereo not given)		> 100 µM		> 100 µM		84.2 µM		> 100 µM						> 100 µM		> 100 µM		> 100 µM	> 100 µM	
